Article PMC5516028, “Molecular tools for GABAA receptors: High affinity ligands for β1-containing subtypes” (Scientific Reports, 2017)

What was measured:
Type in all cases: cell-based
[1] = molecular target: T1, α1β2 GABAA receptors (Rattus norvegicus, UniProt P62813+P63138); test: Two electrode voltage clamp in Xenopus laevis oocytes, α1β2
T1 construct: expressed in transfected cells; host or cells: Xenopus laevis oocytes, mRNA injected
From the text: (§1) cDNA’s of rat GABAA receptor subunits α1, α4, β1, β2, β3 and γ2S were cloned as described. cDNAs of the rat subunits α2, α3 and α5 were gifts from P. Malherbe, that of α6 and γ1 were gifts of P. Seeburg and that of δ was a gift of C. Czajkowski. The mutants were constructed using the Q5 Site-Directed Mutagenesis Kit (New England Biolabs) following manufacturer’s instruction. We used the wild-type rat β3-pCI vector as template and the primers […] and […] resulting in a substitution of amino acid N41 (AAC) to R (AGG). We used the wild-type rat β1-pCI vector as template and the primers […] and […] resulting in a substitution of amino acid R41 (CGG) to N (AAC). The mutated subunits were confirmed by sequencing.
(§2) In vitro transcription of mRNA was based on the cDNA expression vectors encoding for rat GABAA receptor subunits α1–6, β1-3, γ1,2, δ and the two β mutants (β1R41N and β3N41R)[40]. After linearizing the cDNA vectors with appropriate restriction endonucleases, the cDNA was purified and concentrated with the DNA Clean and Contentrator ^TM Kit (Zymoresearch, Catalog No. D4005). Capped transcripts of the purified cDNA were produced using the mMESSAGE mMACHINE® T7 transcription kit (Ambion, TX, USA) and polyadenylated using the Ambion PolyA tailing kit (Ambion). After transcription and polyadenylation the RNA was purified with the MEGAclear ^TM Kit (Ambion, Catalog No. AM1908). The final RNA concentration was measured on NanoDrop® ND-1000 and finally diluted and stored in diethylpyrocarbonate-treated water at −80 °C. For the microinjection, the RNA of αβ receptor combinations was mixed at 1:1 ratio (which leads to αβ receptors that consist of predominantly 3 beta and 2 alpha subunits[27]), for αkβlγm (k = 1–3, l = 1, 3, m = 1, 2) receptors at 1:1:5 ratio, for αkβ3γ2 (k = 4–6) and αkβlδ (k = 1, 4 and 6, l = 1, 3) receptor combinations at 3:1:5 ratio.
(§3) Mature female Xenopus laevis (Nasco, WI) were anesthetized in a bath of ice-cold 0.17% Tricain (Ethyl-m-aminobenzoate, Sigma, MO) before decapitation in full accordance with all rules of the Austrian animal protection law (see http://www.ris.bka.gv.at/Dokumente/BgblAuth/BGBLA_2012_I_114/BGBLA_2012_I_114.pdf) and the Austrian animal experiment by-laws (see https://www.ris.bka.gv.at/Dokumente/BgblAuth/BGBLA_2012_II_522/BGBLA_2012_II_522.pdf) which implement the European Directive 2010/63/EU (see http://eur-lex.europa.eu/LexUriServ/LexUriServ.do?uri=OJ:L:2010:276:0033:0079:en:PDF) into the Austrian law (all information accessed on July 27, 2016). The frog’s ovaries were transferred to ND96 medium (96 mM NaCl, 2 mM KCl, 1 mM MgCl2, 5 mM HEPES; pH 7.5). Stage 5–6 oocytes with the follicle cell layer around them were roughly dissected with forceps into packages of 10–15 cells and washed in Ca^2+-free ND96 medium. Cells were then digested with collagenase (type IA, Sigma, NO, 1 mg/mL ND96) at 18 °C shaking at 30 rpm for 30–60 minutes and gently defolliculated with the aid of a glass pipette with appropriate tip diameter and a platinum loop. Defolliculated cells were stored at 18 °C for at least 6 hours in ND96 solution containing penicillin G (10000 IU/100 mL) and streptomycin (10 mg/100 mL) in order to preselect and exclude damaged cells from further treatment. Healthy defolliculated oocytes were injected with an aqueous solution of mRNA. A total of 4.5 ng of mRNA per oocyte was injected with a Nanoject II (Drummond). After injection of mRNA, oocytes were incubated at 18 °C (ND96 + antibiotic) for 2–3 days for αβ receptors and for 3–4 days for αβγ or αβδ receptors before recording. When cells were measured at later time points, oocytes were stored at +4 °C instead of 18 °C.
(§4) For electrophysiological recordings, oocytes were placed on a nylon-grid in a bath of Ca^2+-containing NDE solution medium [96 mM NaCl, 5 mM HEPES-NaOH (pH 7.5), 2 mM KCl, 1 mM MgCl2, 1.8 mM CaCl2].

[2] = molecular target: T2, α1β3N41R GABAA receptors (Rattus norvegicus, UniProt P62813+P63079, N66R); test: Two electrode voltage clamp in Xenopus laevis oocytes, mutant α1β3N41R; conditions: co-applied with GABA EC3-5, read-out: EC50 values for the mutated receptors
T2 construct: expressed in transfected cells; host or cells: Xenopus laevis oocytes, mRNA injected
T2 sequence (P62813 28-455): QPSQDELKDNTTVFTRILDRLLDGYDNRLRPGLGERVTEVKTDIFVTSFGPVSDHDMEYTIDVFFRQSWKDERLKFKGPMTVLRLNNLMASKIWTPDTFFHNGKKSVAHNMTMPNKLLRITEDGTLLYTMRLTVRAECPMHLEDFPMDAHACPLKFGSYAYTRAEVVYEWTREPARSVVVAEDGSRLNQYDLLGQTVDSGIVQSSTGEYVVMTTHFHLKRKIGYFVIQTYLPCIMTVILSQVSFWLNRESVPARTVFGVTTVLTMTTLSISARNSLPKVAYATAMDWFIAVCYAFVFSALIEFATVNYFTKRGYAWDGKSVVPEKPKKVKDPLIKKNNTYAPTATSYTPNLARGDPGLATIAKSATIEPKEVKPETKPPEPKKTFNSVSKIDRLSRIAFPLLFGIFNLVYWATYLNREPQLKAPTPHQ
T2 sequence (P63079 26-473 N66R): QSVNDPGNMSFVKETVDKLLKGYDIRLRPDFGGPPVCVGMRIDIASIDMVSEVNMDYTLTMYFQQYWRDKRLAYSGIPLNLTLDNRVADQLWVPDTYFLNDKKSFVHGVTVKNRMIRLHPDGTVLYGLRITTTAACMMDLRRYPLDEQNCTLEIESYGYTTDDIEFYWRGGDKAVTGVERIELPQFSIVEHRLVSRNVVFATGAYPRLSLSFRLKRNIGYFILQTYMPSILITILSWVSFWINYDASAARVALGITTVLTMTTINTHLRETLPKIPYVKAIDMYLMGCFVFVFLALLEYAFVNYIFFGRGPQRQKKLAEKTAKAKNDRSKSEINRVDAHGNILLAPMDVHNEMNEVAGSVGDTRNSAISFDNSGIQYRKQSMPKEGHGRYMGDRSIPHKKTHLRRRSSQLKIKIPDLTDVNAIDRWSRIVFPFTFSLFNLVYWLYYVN
From the text: as §1, §2, §3, §4

[3] = molecular target: T3, α1β1 GABAA receptors (Rattus norvegicus, UniProt P15431+P62813); test: Two electrode voltage clamp in Xenopus laevis oocytes, α1β1
T3 construct: expressed in transfected cells; host or cells: Xenopus laevis oocytes, mRNA injected
T3 sequence (P62813 28-455): as the sequence (P62813 28-455) above
T3 sequence (P15431 26-474): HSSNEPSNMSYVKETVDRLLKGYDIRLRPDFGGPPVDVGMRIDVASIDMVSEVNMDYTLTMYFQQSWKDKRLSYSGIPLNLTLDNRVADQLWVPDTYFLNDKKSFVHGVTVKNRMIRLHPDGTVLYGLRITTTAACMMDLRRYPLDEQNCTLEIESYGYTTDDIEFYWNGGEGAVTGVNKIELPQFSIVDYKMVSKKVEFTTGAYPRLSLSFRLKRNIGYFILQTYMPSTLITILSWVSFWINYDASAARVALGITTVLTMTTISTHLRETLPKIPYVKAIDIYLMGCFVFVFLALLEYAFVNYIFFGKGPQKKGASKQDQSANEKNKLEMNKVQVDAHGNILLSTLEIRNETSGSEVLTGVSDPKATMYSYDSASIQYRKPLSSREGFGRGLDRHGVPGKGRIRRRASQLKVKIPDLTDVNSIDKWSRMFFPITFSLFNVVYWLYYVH
From the text: as §1, §2, §3, §4

[4] = molecular target: T4, α1β3 GABAA receptors (Rattus norvegicus, UniProt P62813+P63079); test: Two electrode voltage clamp in Xenopus laevis oocytes, α1β3
T4 construct: expressed in transfected cells; host or cells: Xenopus laevis oocytes, mRNA injected
T4 sequence (P62813 28-455): as the sequence (P62813 28-455) above
T4 sequence (P63079 26-473): as the sequence (P63079 26-473 N66R) above, with R41N counted along it
From the text: as §1, §2, §3, §4

[5] = molecular target: T5, α1β1R41N GABAA receptors (Rattus norvegicus, UniProt P15431+P62813, R66N); test: Two electrode voltage clamp in Xenopus laevis oocytes, mutant α1β1R41N
T5 construct: expressed in transfected cells; host or cells: Xenopus laevis oocytes, mRNA injected
T5 sequence (P62813 28-455): as the sequence (P62813 28-455) above
T5 sequence (P15431 26-474 R66N): as the sequence (P15431 26-474) above, with R41N counted along it
From the text: as §1, §2, §3, §4

T1 sequence (P62813 28-455): as the sequence (P62813 28-455) above
T1 sequence (P63138 25-474 limits assumed): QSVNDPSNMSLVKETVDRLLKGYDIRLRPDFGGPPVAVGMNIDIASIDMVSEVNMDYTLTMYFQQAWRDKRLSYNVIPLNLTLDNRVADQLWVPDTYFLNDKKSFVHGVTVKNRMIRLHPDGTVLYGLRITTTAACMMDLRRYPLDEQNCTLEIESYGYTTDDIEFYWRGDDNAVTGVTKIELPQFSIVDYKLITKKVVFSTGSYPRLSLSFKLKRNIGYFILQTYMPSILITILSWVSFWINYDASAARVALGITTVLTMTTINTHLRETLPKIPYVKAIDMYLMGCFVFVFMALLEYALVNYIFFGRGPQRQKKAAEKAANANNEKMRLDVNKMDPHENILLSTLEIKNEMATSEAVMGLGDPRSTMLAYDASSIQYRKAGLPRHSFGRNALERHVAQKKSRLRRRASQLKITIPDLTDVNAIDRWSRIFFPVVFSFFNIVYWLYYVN

Compound: COc1ccc(-n2nc3c4cc(Cl)ccc4[nH]cc-3c2=O)cc1 [Compound 1, 8-Chloro-2-(4-methoxyphenyl)-2H-pyrazolo[4,3-c]quinolin-3(5H)-one]
- EC50 [1]: 1150 nM
- activity at 0.001 µM ([1]; read-out: efficacy, % of control current (GABA EC3-5 = 100%), α1β2, 1 nM): 100%
- activity at 10 µM ([1]; read-out: efficacy, % of control current (GABA EC3-5 = 100%), α1β2, 10 µM): 644 ± 57%
- Hill slope (nH) ([1]; α1β2): 1.1±0.3
- EC50 [2]: 980 nM
- activity at 0.001 µM ([3]; read-out: efficacy, % of control current (GABA EC3-5 = 100%), α1β1, 1 nM): 102 ± 1.7%
- activity at 0.003 µM ([3]; read-out: efficacy, % of control current (GABA EC3-5 = 100%), α1β1, 3 nM): 100.5 ± 0.5%
- activity at 0.03 µM ([3]; read-out: efficacy, % of control current (GABA EC3-5 = 100%), α1β1, 30 nM): 138 ± 13.3%
- activity at 0.3 µM ([3]; read-out: efficacy, % of control current (GABA EC3-5 = 100%), α1β1, 300 nM): 292 ± 24.5%
- activity at 30 µM ([3]; read-out: efficacy, % of control current (GABA EC3-5 = 100%), α1β1, 30 µM): 174 ± 34.2%
- Hill slope (nH) ([3]; α1β1): 1.3±0.4
- EC50 ([3]; α1β1 (α1+/β1− interface), read-out: EC50): 130 nM
- activity at 0.01 µM ([4]; read-out: efficacy, % of control current (GABA EC3-5 = 100%), α1β3, 10 nM): 106 ± 1.6%
- activity at 3 µM ([4]; read-out: efficacy, % of control current (GABA EC3-5 = 100%), α1β3, 3 µM): 839 ± 105%
- Hill slope (nH) ([4]; α1β3): 1.5±0.5
- EC50 ([4]; α1β3, co-applied with GABA EC3-5, read-out: EC50): 1840 nM
- current as % of control at 0.1 µM ([5]; 100nM, read-out: % of control current at EC3-5): 80 ± 10%
- current as % of control at 0.3 µM ([5]; 300nM, read-out: % of control current at EC3-5): 100 ± 10%
- current as % of control at 1 µM ([5]; 1μM, read-out: % of control current at EC3-5): 140 ± 16%
- current as % of control at 3 µM ([5]; 3µM, read-out: % of control current at EC3-5): 195 ± 20%
- current as % of control at 10 µM ([5]; 10μM, read-out: % of control current at EC3-5): 205 ± 20%
- current as % of control at 30 µM ([5]; 30μM, read-out: % of control current at EC3-5): 150 ± 10%
- EC50 ([5]; co-applied with GABA EC3-5): 800 nM
